{"source": "paper PMC10571761", "about": "“Transgenic Mice Expressing Functional TCRs Specific to Cardiac Myhc-α 334–352 on Both CD4 and CD8 T Cells Are Resistant to the Development of Myocarditis on C57BL/6 Genetic Background” (Cells, 2023)", "key": {"IA^b": {"target": "T1, IA^b (Mus musculus, UniProt P14434+P14483)", "T1 construct": "IA^b constructs were designed to contain the extracellular domains of IA^b-α and IA^b-β; CLIP 88–102 ([…]) with thrombin site (cleaved yes); made in house; host or cells: Sf9 insect cells (baculovirus)", "T1 sequence (P14434 24-218 limits assumed)": "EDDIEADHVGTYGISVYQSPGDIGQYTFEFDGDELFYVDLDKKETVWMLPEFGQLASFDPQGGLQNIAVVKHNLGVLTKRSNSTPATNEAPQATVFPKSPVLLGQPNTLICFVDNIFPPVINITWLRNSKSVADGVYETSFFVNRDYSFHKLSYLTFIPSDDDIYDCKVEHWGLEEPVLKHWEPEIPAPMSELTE", "T1 sequence (P14483 28-226 limits assumed)": "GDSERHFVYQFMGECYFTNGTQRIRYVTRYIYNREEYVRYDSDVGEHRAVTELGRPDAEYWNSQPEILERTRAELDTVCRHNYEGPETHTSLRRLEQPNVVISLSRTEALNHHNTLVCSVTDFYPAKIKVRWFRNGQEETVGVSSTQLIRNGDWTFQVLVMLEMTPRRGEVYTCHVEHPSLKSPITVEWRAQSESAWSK", "test": "IA^b binding assay (DELFIA competition)", "conditions": "soluble thrombin-cleaved IA^b (0.35 µg); competitor 0.00001 µM to 100 µM; biotinylated OVA 323–339 (50 µM) reference; pH 7.0 phosphate; overnight RT; fluorescence 340/615 nm; three to five experiments, three replicates each; read-out: IC50 value, binding to IA^b molecules", "from_the_text": "To determine the binding affinity of Myhc-α 334–352 to IA^b, soluble IA^b molecules were expressed similarly to the IA^k molecule. Briefly, IA^b constructs were designed to contain the extracellular domains of IA^b-α and IA^b-β [43]. The IA^b-β construct consisted of the class II-associated invariant chain peptide (CLIP) 88–102 (VSQMRMATPLLMRPM) and thrombin site to release the CLIP [44]. After expressing the IA^b molecules in baculovirus using Sf9 cells and purifying on an anti-IA^b affinity column (clone, M5/114) (BioXCell, West Lebanon, NH, USA), they were cleaved with thrombin to obtain empty IA^b molecules. […] In addition, anti-IA^b (10 µg/mL) was coated onto white fluorescence 96-well plates (Nunc, Rochester, NY, USA) in 0.2 M sodium phosphate buffer, pH 6.8, overnight, followed by washing and blocking with 2% casein for 2 h at 37 °C. […] Europium-labeled streptavidin was added (1 µg/mL) in dissociation-enhanced lanthanide fluorescence immunoassay (DELFIA®) buffer and then the DELFIA®-enhancement solution (Perkin Elmer, Waltham, MA, USA). Fluorescence intensities were measured at wavelengths of 340/615 nm using a VICTOR® Multilabel Plate Reader (Perkin Elmer), and IC50 values were then determined. […]"}, "IA^k": {"target": "T2, IA^k (Mus musculus, UniProt P01910+P06343)", "T2 construct": "After expressing soluble IA^k and IA^b monomers in a baculovirus system; CLIP peptide, released by thrombin cleavage (cleaved yes); made in house; host or cells: baculovirus system (insect cells; Sf9 is stated only for IA^b)", "test": "IA^k binding assay (DELFIA competition)", "conditions": "soluble thrombin-cleaved IA^k; reference peptide biotinylated HEL 46–61; overnight RT; europium-labeled streptavidin, fluorescence 340/615 nm; mean ± SEM from three to five experiments, three replicates each; read-out: IC50 value, binding to IA^k molecules"}, "A/J mice": {"system": "A/J mice", "conditions": "immunization with CFA; cited from earlier work", "from_the_text": "Histologically, the disease process can be classified into lymphocytic, neutrophilic, eosinophilic, granulomatous, and giant cell myocarditis. Of these, lymphocytic myocarditis generally occurs with viral infections. Although most myocarditis-affected individuals may spontaneously recover, up to 20% of them can develop DCM, in which autoimmunity is suspected as an underlying mechanism. […] The immunogenic epitopes can be promiscuous in that they can bind multiple MHC alleles."}, "BALB/c mice": {"system": "BALB/c mice", "conditions": "immunization with CFA; cited from earlier work", "from_the_text": "(§1) Histologically, the disease process can be classified into lymphocytic, neutrophilic, eosinophilic, granulomatous, and giant cell myocarditis. Of these, lymphocytic myocarditis generally occurs with viral infections. Although most myocarditis-affected individuals may spontaneously recover, up to 20% of them can develop DCM, in which autoimmunity is suspected as an underlying mechanism. Although autoantibodies for various antigens—such as cardiac myosin (Myhc), adenine nucleotide translocator (ANT), branched-chain α-ketoacid dehydrogenase kinase (BCKDk), sarcoplasmic/end ..."}, "CD4 and CD8 T cells": {"system": "CD4 and CD8 T cells", "conditions": "cited from earlier work", "from_the_text": "In that direction, we sought to create TCR Tg mice specific to Myhc-α 334–352 and made a few observations. […] However, expression of Myhc-α 334–352-specific TCRs in both CD4 and CD8 T cells was not expected. To our knowledge, our Tg model is only the second such example to have been reported, with the earlier example being 1C6 Tg mice specific to myelin olig ..."}, "rats": {"system": "rats", "conditions": "immunization with CFA; cited from earlier work", "from_the_text": "as §1"}, "lymphocytes from Tg mice": {"system": "lymphocytes from Tg mice", "test": "Cytokine analysis, lymphocytes of immunized Tg mice", "type": "cell-based, TCR transgenic mice on C57BL/6 background", "conditions": "control peptide, two days", "procedure": "Myhc-α 334–352 immunizations involved peptide/CFA emulsions containing Mycobacterium tuberculosis H37RA extract (Difco Laboratories, Detroit, MI, USA) with a final concentration of 5 mg/mL. The emulsions were administered subcutaneously (100 µg/mouse) in the inguinal and sternum regions on days 0 and 7. In some experiments, animals received emulsions in the left and right shoulders and on the right and left sides of the hip regions in split doses. Additionally, pertussis toxin (List Biological Laboratories, Campbell, CA, USA) was administered to animals intraperitoneally (100 ng/mouse) on days 0 and 2 after the first immunization.\nLymphocytes were obtained from wild-type (Wt) or Tg mice immunized with or without Myhc-α 334–352. […] Cytokines were analyzed using the LEGENDplex Murine Th cytokine Panel (12-plex or 13-plex; BioLegend). […] Beads were acquired by flow cytometry (FACSCalibur™), and concentrations of cytokines were determined using the LEGENDplex™ data analysis software suite (BioLegend). […]\nFigure 6 Tg T cells produce mainly Th1 and Th17 cytokines. […] Cells were stimulated with or without Myhc-α 334–352 or OVA 323–339 (control) at the indicated concentrations for two days, and the culture supernatants were evaluated by cytokine bead array analysis except for IL-4, which was measured by ELISA. […]"}, "[1]": {"target": "T3, cardiac myosin heavy chain (Myhc)-α peptide on I-Ak (mouse)", "T3 peptide": "DSAFDVLSFTAEEKAGVYK", "test": "multimer staining"}}, "note": "Peptide text beside a SMILES is read from it."}
{"molecule": "CC(C)C[C@H](NC(=O)[C@@H](NC(=O)[C@H](CC(=O)O)NC(=O)[C@H](Cc1ccccc1)NC(=O)[C@H](C)NC(=O)[C@H](CO)NC(=O)[C@@H](N)CC(=O)O)C(C)C)C(=O)N[C@@H](CO)C(=O)N[C@@H](Cc1ccccc1)C(=O)N[C@H](C(=O)N[C@@H](C)C(=O)N[C@@H](CCC(=O)O)C(=O)N[C@@H](CCC(=O)O)C(=O)N[C@@H](CCCCN)C(=O)N[C@@H](C)C(=O)NCC(=O)N[C@H](C(=O)N[C@@H](Cc1ccc(O)cc1)C(=O)N[C@@H](CCCCN)C(=O)O)C(C)C)[C@@H](C)O", "note": "[Myhc-α 334–352] (H-DSAFDVLSFTAEEKAGVYK-OH)", "values": [{"measurement": "IC50", "setting": "IA^b", "value": "> 100", "unit": "µM"}, {"measurement": "IC50", "setting": "IA^k", "value": "37.8 ± 10.3", "unit": "µM"}]}
{"molecule": "SERCA2a 971–990: sarcoplasmic/endoplasmic reticulum Ca2^+ adenosine triphosphatase 2a 971–990 epitope (KISLPVILMDETLKFVARNY; UniProt O55143 971-990, looked up, fragment)", "values": [{"measurement": "myocarditis induction in A/J mice (in words)", "setting": "A/J mice", "value": "myocarditogenic"}]}
{"molecule": "Myhc-α 614–643: myocarditogenic epitope in BALB/c mice (SLKLMATLFSTYASADTGDSGKGKGGKKKG; UniProt Q02566 614-643, looked up, fragment)", "values": [{"measurement": "myocarditis induction in BALB/c mice (in words)", "setting": "BALB/c mice", "value": "myocarditogenic"}]}
{"molecule": "MOG 35–55: myelin oligodendrocyte glycoprotein 35–55 (GPGYPIRALVGDEAELPCRIS; UniProt Q61885 35-55, looked up, fragment)", "values": [{"measurement": "T cell stimulation (in words)", "setting": "CD4 and CD8 T cells", "value": "stimulate both cell types"}]}
{"molecule": "Myhc-α 1304–1320: myocarditogenic epitope in rats (RGKLSYTQQMEDLKRQL; UniProt P02563 1304-1320, looked up, fragment)", "values": [{"measurement": "myocarditis induction in rats (in words)", "setting": "rats", "value": "myocarditogenic"}]}
{"molecule": "ANT 21–40: adenine nucleotide translocator 21–40 epitope (VSKTAVAPIERVKLLLQVQH; UniProt P48962 21-40, looked up, fragment)", "values": [{"measurement": "myocarditis induction in A/J mice (in words)", "setting": "A/J mice", "value": "myocarditogenic"}]}
{"molecule": "β1AR 181–200: β1 adrenergic receptor 181–200 epitope (TVWAISALVSFLPILMHWWR; UniProt P34971 181-200, looked up, fragment)", "values": [{"measurement": "myocarditis induction in A/J mice (in words)", "setting": "A/J mice", "value": "myocarditogenic"}]}
{"molecule": "ISQAVHAAHAEINEAGR [OVA 323–339]", "values": [{"measurement": "cytokine responses (in words)", "setting": "lymphocytes from Tg mice", "value": "lack of cytokine responses"}]}
{"molecule": "Myhc-α 338–348: truncated version of Myhc-α 334–352 (DVLSFTAEEKA; UniProt Q02566 338-348, looked up, fragment)", "values": [{"measurement": "T cell stimulation by truncated peptide (in words)", "setting": "CD4 and CD8 T cells; A/J", "value": "could stimulate both CD4 and CD8 T cells"}]}
{"molecule": "cTNI 105–122: cardiac troponin I 105–122 epitope (VDKVDEERYDVEAKVTKN; UniProt P48787 105-122, looked up, fragment)", "values": [{"measurement": "myocarditis induction in A/J mice (in words)", "setting": "A/J mice", "value": "myocarditogenic"}]}
{"molecule": "Myhc-α 334–352-specific TCR of T cell hybridoma clone C33 (transgenic TCR of the Myhc-α 334–352 TCR Tg mice) (TCR) alpha TRAV14-1*02 TRAJ42*01 CDR3: CAASAEGSNAKLTF beta TRBV2*01 TRBJ2-5*01 CDR3: CASSQSLGQDTQYF", "values": [{"measurement": "binding result", "setting": "[1]", "value": "recognises"}]}
